Reference: patent US10537643B2, “Chemoembolization composition comprising anti-angiogenic agents” (CENTRE HOSPITALIER UNIVERSITAIRE VAUDOIS, priority 2010, dated 2020)

Experiments:
[1] = Liver enzymes after administration in healthy rabbits; conditions: sunitinib p.o., unique dose of 6 mg, healthy rabbit
Method: Adult healhy male New Zealand White Rabbits (n=12) weighing between 3.2-2.8 kgs were used.
DC Beads measuring between 100-300 μm (Biocompatibles) were used.
Animals were separated in 3 groups.
Liver enzymes were measured from blood samples obtained by a catheter placed in the vein of the rabbit's ear, immediately before embolization or oral administration of the drug and 6 hours.

[2] = cited from earlier work
[3] = Stability / precipitation of sunitinib solutions; assay type: physicochemical
Text: However, preparing drug-loaded beads is not a straightforward procedure, especially if they should be loaded with chemotherapeutic agents of low solubility in aqueous media. This solubility can be insufficient to reach useful therapeutic dose, such as for sorafenib tosylate. In the case where apparent solubility is sufficient to reach useful therapeutic dose, it may appear that some delayed precipitation occurs; making impossible the utilization of such preparation in a clinic setup. For example, sunitinib base or malate can be dissolved in standard media used for loading anthracycline drugs, such as doxorubicine. […] In addition, no liquid oral or parenteral solution of any sunitinib salt is commercially available, that could be used to load DEBs. […] WO 2007/090897 further discloses a method for loading beads with water insoluble chemotherapeutic agents by using organic solvents. However, such an approach is not adequate for extemporaneous preparation by the medical staff.
Advantageously, this solution is isotonic to human plasma and it is safe for the parenteral applications. Noteworthy, the sugar is not limited to glucose. Other sugars or polyol could be used such as sucrose, dextran, mannitol, sorbitol or trehalose.

[4] = sunitinib per os, unique dose of 6 mg, rabbit; according to previous pharmacological studies (FDA); cited from earlier work

| liver enzymes [1] | stability of the drug ([3]; HPLC analysis, sunitinib loaded DC beads preparation) | stability of sunitinib solution (precipitation) ([3]; in presence of sugar, 5% glucose, in contrast to saline or hydrochloric acid solutions) | Compound | plasma concentrations ([2]; approved starting oral dose 50 mg/day) | patients with serious (grade 3 or 4) adverse events ([2]; oral sunitinib therapy) [%] | patients requiring dose reductions ([2]; patients treated for RCC) [%] | therapeutic plasmatic concentration (Cmax) [4] [ng/mL] | precipitation in solution ([3]; standard media used for loading anthracycline drugs) |
| --- | --- | --- | --- | --- | --- | --- | --- | --- |
| did not cause any alteration | verified | stable, without any precipitation | CCN(CC)CCNC(=O)c1c(C)[nH]c(/C=C2\C(=O)Nc3ccc(F)cc32)c1C [sunitinib] | at least 50 ng/ml | ≤ 10 | 50 | 45 to 55 | – |
| – | – | – | CCN(CC)CCNC(=O)c1c(C)[nH]c(/C=C2\C(=O)Nc3ccc(F)cc32)c1C [sunitinib malate] | – | – | – | – | precipitate within a short period of time |
